Patent US11970498B2, “CDK2 inhibitors” (BLUEPRINT MEDICINES CORPORATION, priority 2021, dated 2024)

Assays:
CDK2/Cyclin E = CDK2/Cyclin E (Homo sapiens, UniProt P24941); experiment: CDK2/Cyclin E biochemical phosphorylation assay (Caliper mobility shift); conditions: apparent IC50; 1.0 mM ATP or ATP Km; 1.25 nM enzyme; 25° C.; read-out: CDK2/cyclin E1 IC50
Summary of the method: (§1)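 Caliper electrophoretic separation of substrate and phosphopeptide gave apparent IC50s. Enzymes: CDK1/Cyclin B1 GST-tag 1.5 nM, CDK2/Cyclin E 1.25 nM; ATP 1.0 mM or at Km; 7.5 µM FL-peptide; pH 7.5 HEPES buffer, 1% DMSO; room temperature until 10–20% phosphorylated, then EDTA quench.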

CDK1/Cyclin B1, GST-tag = target: T1, CDK1/Cyclin B1, GST-tag (Homo sapiens, UniProt P06493); experiment: CDK1/Cyclin B1 biochemical phosphorylation assay (Caliper mobility shift); conditions: apparent IC50; 1.0 mM ATP or ATP Km; 1.5 nM enzyme; 25° C.
T1 construct: GST
T1 sequence (P06493 whole entry): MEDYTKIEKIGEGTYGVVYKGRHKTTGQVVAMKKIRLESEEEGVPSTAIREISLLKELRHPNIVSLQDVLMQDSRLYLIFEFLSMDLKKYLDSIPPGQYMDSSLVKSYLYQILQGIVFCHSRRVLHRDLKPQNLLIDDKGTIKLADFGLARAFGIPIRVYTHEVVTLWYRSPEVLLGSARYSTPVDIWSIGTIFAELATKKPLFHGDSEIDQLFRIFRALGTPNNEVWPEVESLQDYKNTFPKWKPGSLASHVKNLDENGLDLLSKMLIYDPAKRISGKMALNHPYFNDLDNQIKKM
T1 sequence (P14635 whole entry partner): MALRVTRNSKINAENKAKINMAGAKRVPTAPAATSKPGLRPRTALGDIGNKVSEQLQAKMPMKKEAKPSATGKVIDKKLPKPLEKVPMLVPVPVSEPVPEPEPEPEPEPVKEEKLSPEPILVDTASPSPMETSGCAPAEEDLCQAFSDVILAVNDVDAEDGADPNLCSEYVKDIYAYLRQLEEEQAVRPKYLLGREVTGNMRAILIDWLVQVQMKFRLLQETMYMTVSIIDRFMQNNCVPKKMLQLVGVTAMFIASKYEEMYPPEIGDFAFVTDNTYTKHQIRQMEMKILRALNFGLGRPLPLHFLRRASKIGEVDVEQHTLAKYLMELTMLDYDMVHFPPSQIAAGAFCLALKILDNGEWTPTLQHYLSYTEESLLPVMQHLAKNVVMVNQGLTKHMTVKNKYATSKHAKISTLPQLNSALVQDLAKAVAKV
Summary of the method: as §1

| IC50 (CDK2/Cyclin E) [nM] | IC50 (CDK1/Cyclin B1, GST-tag) [nM] | Compound |
| --- | --- | --- |
| > 100 | ≥ 500 | COc1cc(Nc2cnc3cnn([C@@H](C)c4cc(F)ccn4)c3n2)n[nH]1 (single isomer, unassigned) [Example 187, (R)-1-(1-(4-fluoropyridin-2-yl)ethyl)-N-(5-methoxy-1H-pyrazol-3-yl)-1H-pyrazolo[3,4-b]pyrazin-6-amine or (S)-1-(1-(4-fluoropyridin-2-yl)ethyl)-N-(5-methoxy-1H-pyrazol-3-yl)-1H-pyrazolo[3,4-b]pyrazin-6-amine] |
| 20 to 30 | ≥ 500 | Fc1cccc(Cn2ncc3ncc(Nc4cc(OC(F)F)[nH]n4)nc32)c1 [Example 39, N-(5-(difluoromethoxy)-1H-pyrazol-3-yl)-1-(3-fluorobenzyl)-1H-pyrazolo[3,4-b]pyrazin-6-amine] |
| ≤ 10 | ≥ 500 | FC(F)Oc1cc(Nc2cnc3cnn(Cc4cccnn4)c3n2)n[nH]1 [Example 222, N-(5-(difluoromethoxy)-1H-pyrazol-3-yl)-1-(pyridazin-3-ylmethyl)-1H-pyrazolo[3,4-b]pyrazin-6-amine] |
| 10 to 20 | ≥ 500 | O[C@H]1CC[C@@H](n2ncc3ncc(Nc4cc(OC(F)F)[nH]n4)nc32)C1 (single isomer, unassigned) [Example 207] |
| ≤ 10 | ≥ 500 | FC(F)Oc1cc(Nc2cnc3cnn(Cc4cccnc4)c3n2)n[nH]1 [Example 35, N-(5-(difluoromethoxy)-1H-pyrazol-3-yl)-1-(pyridin-3-ylmethyl)-1H-pyrazolo[3,4-b]pyrazin-6-amine] |
| ≤ 10 | ≥ 500 | C[C@@H](O)c1nn([C@@H](C)C2CCOCC2)c2nc(Nc3cc(OC(F)F)[nH]n3)cnc12 (single isomer, unassigned) [Example 181, (R)-1-(6-((5-(difluoromethoxy)-1H-pyrazol-3-yl)amino)-1-((S)-1-(tetrahydro-2H-pyran-4-yl)ethyl)-1H-pyrazolo[3,4-b]pyrazin-3-yl)ethan-1-ol or (S)-1-(6-((5-(difluoromethoxy)-1H-pyrazol-3-yl)amino)-1-((S)-1-(tetrahydro-2H-pyran-4-yl)ethyl)-1H-pyrazolo[3,4-b]pyrazin-3-yl)ethan-1-ol] |
| 20 to 30 | ≥ 500 | FC(F)Oc1cc(Nc2cnc3cnn(C[C@@]4(F)CCOC4)c3n2)n[nH]1 (single isomer, unassigned) [Example 167, (S)-N-(5-(difluoromethoxy)-1H-pyrazol-3-yl)-1-((3-fluorotetrahydrofuran-3-yl)methyl)-1H-pyrazolo[3,4-b]pyrazin-6-amine or (R)-N-(5-(difluoromethoxy)-1H-pyrazol-3-yl)-1-((3-fluorotetrahydrofuran-3-yl)methyl)-1H-pyrazolo[3,4-b]pyrazin-6-amine] |
| 30 to 100 | ≥ 500 | FC(F)Oc1cc(Nc2cnc3cnn([C@H](C4CCOCC4)C4CC4)c3n2)n[nH]1 (single isomer, unassigned) [Example 158, (R)-1-(cyclopropyl(tetrahydro-2H-pyran-4-yl)methyl)-N-(5-(difluoromethoxy)-1H-pyrazol-3-yl)-1H-pyrazolo[3,4-b]pyrazin-6-amine or (S)-1-(cyclopropyl(tetrahydro-2H-pyran-4-yl)methyl)-N-(5-(difluoromethoxy)-1H-pyrazol-3-yl)-1H-pyrazolo[3,4-b]pyrazin-6-amine] |
| > 100 | ≥ 500 | N#C[C@@]1(Cn2ncc3ncc(Nc4cc(OC(F)F)[nH]n4)nc32)CCOC1 (single isomer, unassigned) [Example 170, (R)-3-((6-((5-(difluoromethoxy)-1H-pyrazol-3-yl)amino)-1H-pyrazolo[3,4-b]pyrazin-1-yl)methyl)tetrahydrofuran-3-carbonitrile or (S)-3-((6-((5-(difluoromethoxy)-1H-pyrazol-3-yl)amino)-1H-pyrazolo[3,4-b]pyrazin-1-yl)methyl)tetrahydrofuran-3-carbonitrile] |
| 20 to 30 | ≥ 500 | COc1cc(Nc2cnc3cnn(C(C)c4cccnn4)c3n2)n[nH]1 (single isomer, unassigned) [Example 32, (S)—N-(5-methoxy-1H-pyrazol-3-yl)-1-(1-(pyridazin-3-yl)ethyl)-1H-pyrazolo[3,4-b]pyrazin-6-amine or (R)—N-(5-methoxy-1H-pyrazol-3-yl)-1-(1-(pyridazin-3-yl)ethyl)-1H-pyrazolo[3,4-b]pyrazin-6-amine] |
| ≤ 10 | ≥ 500 | C[C@@H](O)c1nn([C@@H](C)c2cccnc2)c2nc(Nc3cc(OC(F)F)[nH]n3)cnc12 (single isomer, unassigned) [Example 178, (S)-1-(6-((5-(difluoromethoxy)-1H-pyrazol-3-yl)amino)-1-((S)-1-(pyridin-3-yl)ethyl)-1H-pyrazolo[3,4-b]pyrazin-3-yl)ethan-1-ol or (R)-1-(6-((5-(difluoromethoxy)-1H-pyrazol-3-yl)amino)-1-((S)-1-(pyridin-3-yl)ethyl)-1H-pyrazolo[3,4-b]pyrazin-3-yl)ethan-1-ol] |
| ≤ 10 | ≥ 500 | Cc1nn(Cc2cccnc2)c2nc(Nc3cc(OC(F)F)[nH]n3)cnc12 [Example 84, N-(5-(difluoromethoxy)-1H-pyrazol-3-yl)-3-methyl-1-(pyridin-3-ylmethyl)-1H-pyrazolo[3,4-b]pyrazin-6-amine] |
| 10 to 20 | ≥ 500 | O[C@H]1CC[C@@H](Cn2ncc3ncc(Nc4cc(OC(F)F)[nH]n4)nc32)CC1 (single isomer, unassigned) [Example 171, (1s,4s)-4-((6-((5-(difluoromethoxy)-1H-pyrazol-3-yl)amino)-1H-pyrazolo[3,4-b]pyrazin-1-yl)methyl)cyclohexan-1-ol or (1r,4r)-4-((6-((5-(difluoromethoxy)-1H-pyrazol-3-yl)amino)-1H-pyrazolo[3,4-b]pyrazin-1-yl)methyl)cyclohexan-1-ol] |
| ≤ 10 | ≥ 500 | C[C@H](c1cccc(F)n1)n1ncc2ncc(Nc3cc(OC(F)F)[nH]n3)nc21 (single isomer, unassigned) [Example 156, (S)-N-(5-(difluoromethoxy)-1H-pyrazol-3-yl)-1-(1-(6-fluoropyridin-2-yl)ethyl)-1H-pyrazolo[3,4-b]pyrazin-6-amine or (R)-N-(5-(difluoromethoxy)-1H-pyrazol-3-yl)-1-(1-(6-fluoropyridin-2-yl)ethyl)-1H-pyrazolo[3,4-b]pyrazin-6-amine] |
| 10 to 20 | ≥ 500 | FC(F)Oc1cc(Nc2cnc3cnn(CC4COC4)c3n2)n[nH]1 [Example 85, N-(5-(difluoromethoxy)-1H-pyrazol-3-yl)-1-(oxetan-3-ylmethyl)-1H-pyrazolo[3,4-b]pyrazin-6-amine] |
| 30 to 100 | ≥ 500 | FC(F)Oc1cc(Nc2cnc3cnn(Cc4cscn4)c3n2)n[nH]1 [Example 52, N-(5-(difluoromethoxy)-1H-pyrazol-3-yl)-1-(thiazol-4-ylmethyl)-1H-pyrazolo[3,4-b]pyrazin-6-amine] |

| Compound | IC50 (CDK2/Cyclin E) [nM] | IC50 (CDK1/Cyclin B1, GST-tag) [nM] |
| --- | --- | --- |
| C[C@@H](c1cc(F)ccn1)n1ncc2ncc(Nc3cc(OC(F)F)[nH]n3)nc21 (single isomer, unassigned) [Example 13, (S)—N-(5-(difluoromethoxy)-1H-pyrazol-3-yl)-1-(1-(4-fluoropyridin-2-yl)ethyl)-1H-pyrazolo[3,4-b]pyrazin-6-amine or (R)—N-(5-(difluoromethoxy)-1H-pyrazol-3-yl)-1-(1-(4-fluoropyridin-2-yl)ethyl)-1H-pyrazolo[3,4-b]pyrazin-6-amine] | ≤ 10 | < 100 |
